In patent US20260258032A1, “TYROSINE KINASE 2 INHIBITORS AND USES THEREOF” (BIOGEN MA INC., priority 2022, published 2026) one finds IC50 data, which are given here for 24 compounds.

Each structure is given as a SMILES string. Counter-ions that a name gives are not always drawn.

For one experiment, the target named is T1, JH2 domain of human Tyk2 (Homo sapiens, UniProt P29597).
T1 construct: 10×His-tagged TYK2 JH2 domain (amino acid 575-876)
Description: JH2 biochemical assay (TR-FRET probe displacement). The class given is binding. The conditions noted are these: JH2 biochemical assay. In a few lines: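 A probe-displacement TR-FRET readout: compounds, tested in 3-fold, 10-point dilutions starting at […], compete with 2 nM tracer for 2 nM His-tagged JH2 (residues 575-876) detected by 0.1 nM Tb-anti-His over 60 min. IC50 comes from 4-parameter fits of normalized 520/495 nm ratios.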

Experiment [1] has as its system Tyk2 kinase activity on STAT4. Description: pSTAT4 cell assay (MSD, NK92 cells). In kind it is cell-based. As to conditions: compounds 1 hr, stimulated 15 minutes. In a few lines: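 IC50 values come from 4-parameter logistic fits of normalized percent activity. Phospho-STAT was read by MSD (anti-STAT4 antibodies) in NK92 lysates after a 15 min stimulation with 30 ng/mL IL2. The serum-starved cells had been given compound for 1 h (10 points, four-fold, top 10 μM).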

T1 sequence (P29597 575-876): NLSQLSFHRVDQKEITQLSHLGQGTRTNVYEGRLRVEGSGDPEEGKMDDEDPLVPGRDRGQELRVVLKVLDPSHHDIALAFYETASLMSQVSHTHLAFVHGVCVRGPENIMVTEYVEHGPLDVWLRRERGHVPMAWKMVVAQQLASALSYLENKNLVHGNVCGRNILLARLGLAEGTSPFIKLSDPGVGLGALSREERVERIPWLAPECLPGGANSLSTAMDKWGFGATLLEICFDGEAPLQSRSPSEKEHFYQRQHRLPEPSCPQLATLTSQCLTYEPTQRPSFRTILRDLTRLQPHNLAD

As a reminder, the IC50 is the point on the concentration scale where inhibition reaches its midpoint. Low values mean greater potency in that assay, high ones weaker potency in that assay. Turning to `CC(=O)Nc1cc2c(cn1)C1(CC1)CN2c1cc(C)cc(OC(C)C)n1` [Example 334, N-(1′-(6-isopropoxy-4-methylpyridin-2-yl)-1′,2′-dihydrospiro[cyclopropane-1,3′-pyrrolo[3,2-c]pyridin]-6′-yl)acetamide trifluoroacetate], the IC50 at JH2 domain of human Tyk2 was 0.01 to 0.1 µM; in experiment [1], at least 1 µM.
As for `CCOc1cc(C)cc(N2CC3(CC3)c3cnc(NC(C)=O)cc32)n1` [Example 335, N-(1′-(6-ethoxy-4-methylpyridin-2-yl)-1′,2′-dihydrospiro[cyclopropane-1,3′-pyrrolo[3,2-c]pyridin]-6′-yl)acetamide trifluoroacetate], the IC50 is 0.01 to 0.1 µM at JH2 domain of human Tyk2 and at least 1 µM in experiment [1].
Taken in the same sequence, the figures for `COC(C)(C)COc1cc(C)cc(N2CC3(CC3)c3cnc(NC(C)=O)cc32)n1` [Example 336, N-(1′-(6-(2-methoxy-2-methylpropoxy)-4-methylpyridin-2-yl)-1′,2′-dihydrospiro[cyclopropane-1,3′-pyrrolo[3,2-c]pyridin]-6′-yl)acetamide trifluoroacetate] were 0.1 to 1 µM and at least 1 µM.
As to `CC(=O)Nc1cc2c(cn1)C1(CC1)CN2c1cc(C)cc(OC2CCC(O)C2)n1` (stereo not drawn) [Example 337, N-(1′-(6-((3-hydroxycyclopentyl)oxy)-4-methylpyridin-2-yl)-1′,2′-dihydrospiro[cyclopropane-1,3′-pyrrolo[3,2-c]pyridin]-6′-yl)acetamide trifluoroacetate], the 50% inhibitory concentration (IC50) on JH2 domain of human Tyk2 fell in the range of 0.01 to 0.1 µM; in experiment [1] it was 0.1 to 1 µM.
Taken in the same sequence, the figures for `COC1CCC(Oc2cc(C)cc(N3CC4(CC4)c4cnc(NC(C)=O)cc43)n2)C1` (stereo not drawn) [Example 338, N-(1′-(6-((3-methoxycyclopentyl)oxy)-4-methylpyridin-2-yl)-1′,2′-dihydrospiro[cyclopropane-1,3′-pyrrolo[3,2-c]pyridin]-6′-yl)acetamide trifluoroacetate] were 0.1 to 1 µM and 0.1 to 1 µM.
Taken in the same sequence, the figures for `CC(=O)Nc1cc2c(cn1)C1(CC1)CN2c1cc(C)cc(OC2CCOC2)n1` (stereo not drawn) [Example 339, N-(1′-(4-methyl-6-((tetrahydrofuran-3-yl)oxy)pyridin-2-yl)-1′,2′-dihydrospiro[cyclopropane-1,3′-pyrrolo[3,2-c]pyridin]-6′-yl)acetamide trifluoroacetate] were 0.01 to 0.1 µM and at least 1 µM.
Taken in the same sequence, the figures for `CC(=O)Nc1cc2c(cn1)C1(CC1)CN2c1cc(C)cc(OC2CCC2)n1` [Example 340, N-(1′-(6-cyclobutoxy-4-methylpyridin-2-yl)-1′,2′-dihydrospiro[cyclopropane-1,3′-pyrrolo[3,2-c]pyridin]-6′-yl)acetamide trifluroacetate] were 0.01 to 0.1 µM and at least 1 µM.
On to `CC(=O)Nc1cc2c(cn1)C1(CC1)CN2c1cc(C)cc(OC2COC2)n1` [Example 341, N-(1′-(4-methyl-6-(oxetan-3-yloxy)pyridin-2-yl)-1′,2′-dihydrospiro[cyclopropane-1,3′-pyrrolo[3,2-c]pyridin]-6′-yl)acetamide trifluoroacetate], for which the IC50 (at JH2 domain of human Tyk2; in experiment [1]) was at least 1 µM in each case.
`CC(=O)Nc1cc2c(cn1)C1(CC1)CN2c1cc(C)cc(OC2CC(O)C2)n1` (stereo not drawn) [Example 342, N-(1′-(6-(3-hydroxycyclobutoxy)-4-methylpyridin-2-yl)-1′,2′-dihydrospiro[cyclopropane-1,3′-pyrrolo[3,2-c]pyridin]-6′-yl)acetamide]: the IC50 is 0.1 to 1 µM at JH2 domain of human Tyk2 and at least 1 µM in experiment [1].
Turning to `COC1CC(Oc2cc(C)cc(N3CC4(CC4)c4cnc(NC(C)=O)cc43)n2)C1` (stereo not drawn) [Example 343, N-(1′-(6-(3-methoxycyclobutoxy)-4-methylpyridin-2-yl)-1′,2′-dihydrospiro[cyclopropane-1,3′-pyrrolo[3,2-c]pyridin]-6′-yl)acetamide trifluoroacetate], the IC50 on JH2 domain of human Tyk2 is 0.1 to 1 µM; in experiment [1] it was at least 1 µM.
Taken in the same sequence, the figures for `CC(=O)Nc1cc2c(cn1)C1(CC1)CN2c1cc(C)cc(OC2CC(C#N)C2)n1` (stereo not drawn) [Example 344, N-(1′-(6-(3-cyanocyclobutoxy)-4-methylpyridin-2-yl)-1′,2′-dihydrospiro[cyclopropane-1,3′-pyrrolo[3,2-c]pyridin]-6′-yl)acetamide trifluoroacetate] were 0.1 to 1 µM and at least 1 µM.
Taken in the same sequence, the figures for `COCC1CC(Oc2cc(C)cc(N3CC4(CC4)c4cnc(NC(C)=O)cc43)n2)C1` (stereo not drawn) [Example 345, N-(1′-(6-(3-(methoxymethyl)cyclobutoxy)-4-methylpyridin-2-yl)-1′,2′-dihydrospiro[cyclopropane-1,3′-pyrrolo[3,2-c]pyridin]-6′-yl)acetamide trifluoroacetate] were 0.1 to 1 µM and at least 1 µM.
In the same order, the values of `CC(=O)Nc1cc2c(cn1)C1(CC1)CN2c1cc(C)cc(OC2CC(F)C2)n1` (stereo not drawn) [Example 346, N-(1′-(6-(3-fluorocyclobutoxy)-4-methylpyridin-2-yl)-1′,2′-dihydrospiro[cyclopropane-1,3′-pyrrolo[3,2-c]pyridin]-6′-yl)acetamide trifluoroacetate] are 0.1 to 1 µM and at least 1 µM.
For the compound `CC(=O)Nc1cc2c(cn1)C1(CC1)CN2c1cc(C)cc(OC2CC(C)C2)n1` (stereo not drawn) [Example 347, N-(1′-(4-methyl-6-(3-methylcyclobutoxy)pyridin-2-yl)-1′,2′-dihydrospiro[cyclopropane-1,3′-pyrrolo[3,2-c]pyridin]-6′-yl)acetamide trifluoroacetate], the half-inhibitory concentration (IC50) at JH2 domain of human Tyk2 is 0.1 to 1 µM; in experiment [1], at least 1 µM.
In the same order, the values of `CC(=O)Nc1cc2c(cn1)C1(CC1)CN2c1cc(C)cc(OC2CC(F)C2)n1` (stereo not drawn) [Example 348, N-(1′-(6-(3-fluorocyclobutoxy)-4-methylpyridin-2-yl)-1′,2′-dihydrospiro[cyclopropane-1,3′-pyrrolo[3,2-c]pyridin]-6′-yl)acetamide trifluoroacetate] are 0.1 to 1 µM and at least 1 µM.
Regarding `CC(=O)Nc1cc2c(cn1)C1(CC1)CN2c1cc(C)cc(OCC23CC(C)(CO2)C3)n1` [Example 349, N-(1′-(4-methyl-6-((4-methyl-2-oxabicyclo[2.1.1]hexan-1-yl)methoxy)pyridin-2-yl)-1′,2′-dihydrospiro[cyclopropane-1,3′-pyrrolo[3,2-c]pyridin]-6′-yl)acetamide], the half-maximal inhibitory concentration (IC50) was 0.1 to 1 µM on JH2 domain of human Tyk2 and at least 1 µM in experiment [1].
In the same order, the values of `COC1CC(COc2cc(C)cc(N3CC4(CC4)c4cnc(NC(C)=O)cc43)n2)C1` (stereo not drawn) [Example 350, N-(1′-(6-((3-methoxycyclobutyl)methoxy)-4-methylpyridin-2-yl)-1′,2′-dihydrospiro[cyclopropane-1,3′-pyrrolo[3,2-c]pyridin]-6′-yl)acetamide] are 0.1 to 1 µM and at least 1 µM.
In the same order, the values of `COC1(COc2cc(C)cc(N3CC4(CC4)c4cnc(NC(C)=O)cc43)n2)CCC1` [Example 351, N-(1′-(6-((1-methoxycyclobutyl)methoxy)-4-methylpyridin-2-yl)-1′,2′-dihydrospiro[cyclopropane-1,3′-pyrrolo[3,2-c]pyridin]-6′-yl)acetamide] are 0.1 to 1 µM and at least 1 µM.
On to `CC(=O)Nc1cc2c(cn1)C1(CC1)CN2c1cc(C)cc(OCC2CC2)n1` [Example 352, N-(1′-(6-(cyclopropylmethoxy)-4-methylpyridin-2-yl)-1′,2′-dihydrospiro[cyclopropane-1,3′-pyrrolo[3,2-c]pyridin]-6′-yl)acetamide trifluoroacetate], for which the 50% inhibitory concentration (IC50) is 0.1 to 1 µM on JH2 domain of human Tyk2 and at least 1 µM in experiment [1].
In the same order, the values of `CC(=O)Nc1cc2c(cn1)C1(CC1)CN2c1cc(C)cc(OC2CCC(F)C2)n1` (stereo not drawn) [Example 353, N-(1′-(6-((3-fluorocyclopentyl)oxy)-4-methylpyridin-2-yl)-1′,2′-dihydrospiro[cyclopropane-1,3′-pyrrolo[3,2-c]pyridin]-6′-yl)acetamide trifluoroacetate] are 0.1 to 1 µM and at least 1 µM.
In the same order, the values of `CC(=O)Nc1cc2c(cn1)C1(CC1)CN2c1cc(C)cc(OC2CCCC2)n1` [Example 354, N-(1′-(6-(cyclopentyloxy)-4-methylpyridin-2-yl)-1′,2′-dihydrospiro[cyclopropane-1,3′-pyrrolo[3,2-c]pyridin]-6′-yl)acetamide trifluoroacetate] are 0.1 to 1 µM and at least 1 µM.
Taken in the same sequence, the figures for `CC(=O)Nc1cc2c(cn1)C1(CC1)CN2c1cc(C)cc(OCCF)n1` [Example 355, N-(1′-(6-(2-fluoroethoxy)-4-methylpyridin-2-yl)-1′,2′-dihydrospiro[cyclopropane-1,3′-pyrrolo[3,2-c]pyridin]-6′-yl)acetamide trifluoroacetate] were at most 0.01 µM and 0.1 to 1 µM.
Turning to `CC(=O)Nc1cc2c(cn1)C1(CC1)CN2c1cc(C)cc(OCC(C)(F)F)n1` [Example 356, N-(1′-(6-(2,2-difluoropropoxy)-4-methylpyridin-2-yl)-1′,2′-dihydrospiro[cyclopropane-1,3′-pyrrolo[3,2-c]pyridin]-6′-yl)acetamide trifluoroacetate], the half-maximal inhibitory concentration (IC50) is 0.01 to 0.1 µM at JH2 domain of human Tyk2 and at least 1 µM in experiment [1].
Taken in the same sequence, the figures for `COCCOc1cc(C)cc(N2CC3(CC3)c3cnc(NC(C)=O)cc32)n1` [Example 357, N-(1′-(6-(2-methoxyethoxy)-4-methylpyridin-2-yl)-1′,2′-dihydrospiro[cyclopropane-1,3′-pyrrolo[3,2-c]pyridin]-6′-yl)acetamide trifluoroacetate] were 0.01 to 0.1 µM and at least 1 µM.
